From ChEMBL document CHEMBL4184182, “Studies on interactions of carbazole derivatives with DNA, cell image, and cytotoxicity” (Bioorg Med Chem, 2018)
Active and inactive are the calls of the source. The rule behind the calls is not given here.

What was measured:
Calf thymus DNA [1] = experiment: Binding affinity to calf thymus DNA assessed as hyperchromicity at 15 uM after 5 mins by UV-Visible absorbance titration method; assay type: nucleic-acid assay; details: Bos taurus
dsDNA [2] = experiment: Binding affinity to 26-mer duplex DNA (unknown origin) assessed as hyperchromicity at 15 uM after 5 mins by UV-Visible absorbance titration method; assay type: nucleic-acid assay
Quadruplex DNA [3] = experiment: Binding affinity to Bcl2 G-quadruplex DNA (unknown origin) assessed as hyperchromicity at 15 uM after 5 mins by UV-Visible absorbance titration method; assay type: nucleic-acid assay
Quadruplex DNA [4] = experiment: Binding affinity to human telomeric G-quadruplex DNA assessed as hyperchromicity at 15 uM after 5 mins in presence of potassium ion by UV-Visible absorbance titration method; assay type: nucleic-acid assay
Calf thymus DNA [5] = experiment: Binding affinity to calf thymus DNA assessed as red shift at 15 uM after 5 mins by UV-Visible absorbance titration method; assay type: nucleic-acid assay; details: Bos taurus
dsDNA [6] = experiment: Binding affinity to 26-mer duplex DNA (unknown origin) assessed as red shift at 15 uM after 5 mins by UV-Visible absorbance titration method; assay type: nucleic-acid assay
Quadruplex DNA [7] = experiment: Binding affinity to Bcl2 G-quadruplex DNA (unknown origin) assessed as red shift at 15 uM after 5 mins by UV-Visible absorbance titration method; assay type: nucleic-acid assay
Quadruplex DNA [8] = experiment: Binding affinity to human telomeric G-quadruplex DNA assessed as red shift at 15 uM after 5 mins in presence of potassium ion by UV-Visible absorbance titration method; assay type: nucleic-acid assay
Quadruplex DNA [9] = experiment: Binding affinity to Bcl2 G-quadruplex DNA (unknown origin) assessed as absorption maximum at 5 uM after 5 mins by fluorescence titration method (reference value: 405 nanometer); assay type: nucleic-acid assay
Quadruplex DNA [10] = experiment: Binding affinity to c-Myc G-quadruplex DNA (unknown origin) assessed as absorption maximum at 5 uM after 5 mins by fluorescence titration method (reference value: 405 nanometer); assay type: nucleic-acid assay
Quadruplex DNA [11] = experiment: Binding affinity to human telomeric G-quadruplex DNA assessed as absorption maximum at 5 uM after 5 mins in presence of potassium ion by fluorescence titration method (reference value: 405 nanometer); assay type: nucleic-acid assay
Quadruplex DNA [12] = experiment: Binding affinity to Bcl2 G-quadruplex DNA (unknown origin) assessed as emission maximum at 5 uM after 5 mins by fluorescence titration method (reference value: 559 nanometer); assay type: nucleic-acid assay
Quadruplex DNA [13] = experiment: Binding affinity to human telomeric G-quadruplex DNA assessed as emission maximum at 5 uM after 5 mins in presence of sodium ion by fluorescence titration method (reference value: 559 nanometer); assay type: nucleic-acid assay
[14] = Selectivity ratio of DC50 for 26-mer duplex DNA (unknown origin) to DC50 for human telomeric G-quadruplex DNA in presence of sodium ion
Quadruplex DNA [15] = experiment: Binding affinity to c-Kit G-quadruplex DNA (unknown origin) assessed as enhanced fluorescence time at 5 uM after 5 mins by fluorescence titration assay relative to control; assay type: nucleic-acid assay
Quadruplex DNA [16] = experiment: Binding affinity to Bcl2 G-quadruplex DNA (unknown origin) assessed as enhanced fluorescence ratio at 5 uM after 5 mins by fluorescence titration assay relative to control; assay type: nucleic-acid assay
[17] = Drug uptake in human HepG2 cell nucleus at 10 uM after 2.5 hrs by confocal microscopic method; assay type: ADME, subcellular; details: hepg2, 2.5 h
[18] = Drug uptake in fixed human HepG2 cell nucleus at 10 uM after 2.5 hrs by confocal microscopic method; assay type: ADME, subcellular; details: hepg2, 2.5 h
[19] = Drug uptake in RNase-A treated human HepG2 cell cytoplasm at 10 uM after 2.5 hrs by confocal microscopic method; assay type: ADME, subcellular; details: hepg2, 2.5 h
dsDNA [20] = experiment: Binding affinity to 26-mer duplex DNA (unknown origin) assessed as hyperchromicity at 10 uM after 5 mins by UV-Visible absorbance titration method; assay type: nucleic-acid assay
Quadruplex DNA [21] = experiment: Binding affinity to c-Kit G-quadruplex DNA (unknown origin) assessed as hyperchromicity at 10 uM after 5 mins by UV-Visible absorbance titration method; assay type: nucleic-acid assay
Quadruplex DNA [22] = experiment: Binding affinity to Bcl2 G-quadruplex DNA (unknown origin) assessed as hyperchromicity at 10 uM after 5 mins by UV-Visible absorbance titration method; assay type: nucleic-acid assay
Quadruplex DNA [23] = experiment: Binding affinity to c-Myc G-quadruplex DNA (unknown origin) assessed as hyperchromicity at 10 uM after 5 mins by UV-Visible absorbance titration method; assay type: nucleic-acid assay
Quadruplex DNA [24] = experiment: Binding affinity to human telomeric G-quadruplex DNA assessed as hyperchromicity at 10 uM after 5 mins in presence of sodium ion by UV-Visible absorbance titration method; assay type: nucleic-acid assay
Calf thymus DNA [25] = experiment: Binding affinity to calf thymus DNA assessed as red shift at 10 uM after 5 mins by UV-Visible absorbance titration method; assay type: nucleic-acid assay; details: Bos taurus
Quadruplex DNA [26] = experiment: Binding affinity to c-Kit G-quadruplex DNA (unknown origin) assessed as red shift at 10 uM after 5 mins by UV-Visible absorbance titration method; assay type: nucleic-acid assay
Quadruplex DNA [27] = experiment: Binding affinity to Bcl2 G-quadruplex DNA (unknown origin) assessed as red shift at 10 uM after 5 mins by UV-Visible absorbance titration method; assay type: nucleic-acid assay
Quadruplex DNA [28] = experiment: Binding affinity to c-Myc G-quadruplex DNA (unknown origin) assessed as red shift at 10 uM after 5 mins by UV-Visible absorbance titration method; assay type: nucleic-acid assay
Quadruplex DNA [29] = experiment: Binding affinity to human telomeric G-quadruplex DNA assessed as red shift at 10 uM after 5 mins in presence of sodium ion by UV-Visible absorbance titration method; assay type: nucleic-acid assay
Calf thymus DNA [30] = experiment: Binding affinity to calf thymus DNA assessed as absorption maximum at 5 uM after 5 mins by fluorescence titration method (reference value: 453 nanometer); assay type: nucleic-acid assay; details: Bos taurus
Quadruplex DNA [31] = experiment: Binding affinity to c-Kit G-quadruplex DNA (unknown origin) assessed as absorption maximum at 5 uM after 5 mins by fluorescence titration method (reference value: 453 nanometer); assay type: nucleic-acid assay
Quadruplex DNA [32] = experiment: Binding affinity to c-Myc G-quadruplex DNA (unknown origin) assessed as absorption maximum at 5 uM after 5 mins by fluorescence titration method (reference value: 453 nanometer); assay type: nucleic-acid assay
Quadruplex DNA [33] = experiment: Binding affinity to human telomeric G-quadruplex DNA assessed as absorption maximum at 5 uM after 5 mins in presence of potassium ion by fluorescence titration method (reference value: 453 nanometer); assay type: nucleic-acid assay
Quadruplex DNA [34] = experiment: Binding affinity to human telomeric G-quadruplex DNA assessed as absorption maximum at 5 uM after 5 mins in presence of sodium ion by fluorescence titration method (reference value: 453 nanometer); assay type: nucleic-acid assay
Quadruplex DNA [35] = experiment: Binding affinity to c-Kit G-quadruplex DNA (unknown origin) assessed as emission maximum at 5 uM after 5 mins by fluorescence titration method (reference value: 584 nanometer); assay type: nucleic-acid assay
Quadruplex DNA [36] = experiment: Binding affinity to c-Kit G-quadruplex DNA (unknown origin) assessed as compound fluorescence life time at 5 uM after 5 mins by fluorescence titration method (reference value: 0.192 nanoseconds); assay type: nucleic-acid assay
Quadruplex DNA [37] = experiment: Binding affinity to Bcl2 G-quadruplex DNA (unknown origin) assessed as compound fluorescence life time at 5 uM after 5 mins by fluorescence titration method (reference value: 0.192 nanoseconds); assay type: nucleic-acid assay
Quadruplex DNA [38] = experiment: Binding affinity to human telomeric G-quadruplex DNA assessed as compound fluorescence life time at 5 uM after 5 mins in presence of sodium ion by fluorescence titration method (reference value: 0.192 nanoseconds); assay type: nucleic-acid assay
HepG2 [39] = experiment: Induction of morphological changes in human HepG2 cells assessed as cellular clumping at 5 uM after 24 hrs; assay type: functional, cell-based
HepG2 [40] = experiment: Induction of morphological changes in human HepG2 cells assessed as debris formation at 5 uM after 24 hrs; assay type: functional, cell-based

Q: Which Activity (Calf thymus DNA [1]) does the source give for `CCn1c2ccccc2c2cc(/C=C(\C#N)c3ccc[n+](C)c3)ccc21.[I-]` here?
A: 39.4%

Q: And the Activity (dsDNA [2])?
A: 27.7%

Q: What about the Activity (Quadruplex DNA [3]) of the same molecule?
A: 42.7%

Q: And the Activity (Quadruplex DNA [4])?
A: 41.2%

Q: What about the Activity (Calf thymus DNA [5]) of the same molecule?
A: 23 nm

Q: What about the Activity (dsDNA [6]) of the same molecule?
A: 17 nm

Q: And the Activity (Quadruplex DNA [7])?
A: 29 nm

Q: And the Activity (Quadruplex DNA [8])?
A: 23 nm

Q: And the Activity (Quadruplex DNA [9])?
A: 434 nm

Q: And the Activity (Quadruplex DNA [10])?
A: 430 nm

Q: What about the Activity (Quadruplex DNA [11]) of the same molecule?
A: 428 nm

Q: And the Activity (Quadruplex DNA [12])?
A: 541 nm

Q: And the Activity (Quadruplex DNA [13])?
A: 545 nm

Q: And the Selectivity ratio [14]?
A: 1.33

Q: What about the fold change (FC) (Quadruplex DNA [15]) of the same molecule?
A: 11.2 to 20.6

Q: And the Ratio (Quadruplex DNA [16])?
A: > 6

Q: What about the Drug uptake [17] of the same molecule?
A: Not Active

Q: What about the Drug uptake [18] of the same molecule?
A: Active

Q: And the Drug uptake [19]?
A: Not Active

Q: Which Activity (dsDNA [20]) does the source give for `CCn1c2ccccc2c2cc(/C=C/c3sc4ccccc4[n+]3CC)ccc21.[I-]` here?
A: 24.6%

Q: What about the Activity (Quadruplex DNA [21]) of the same molecule?
A: 55.1%

Q: And the Activity (Quadruplex DNA [22])?
A: 52.6%

Q: What about the Activity (Quadruplex DNA [23]) of the same molecule?
A: 55.6%

Q: What about the Activity (Quadruplex DNA [24]) of the same molecule?
A: 48.4%

Q: And the Activity (Calf thymus DNA [25])?
A: 24 nm

Q: And the Activity (Quadruplex DNA [26])?
A: 40 nm

Q: And the Activity (Quadruplex DNA [27])?
A: 47 nm

Q: And the Activity (Quadruplex DNA [28])?
A: 53 nm

Q: What about the Activity (Quadruplex DNA [29]) of the same molecule?
A: 24 nm

Q: And the Activity (Calf thymus DNA [30])?
A: 477 nm

Q: And the Activity (Quadruplex DNA [31])?
A: 493 nm

Q: And the Activity (Quadruplex DNA [32])?
A: 506 nm

Q: And the Activity (Quadruplex DNA [33])?
A: 474 nm

Q: What about the Activity (Quadruplex DNA [34]) of the same molecule?
A: 477 nm

Q: And the Activity (Quadruplex DNA [35])?
A: 588 nm

Q: What about the Time (Quadruplex DNA [36]) of the same molecule?
A: 1.51 nanoseconds

Q: What about the Time (Quadruplex DNA [37]) of the same molecule?
A: 2.17 nanoseconds

Q: And the Time (Quadruplex DNA [38])?
A: 2.15 nanoseconds

Q: What about the Activity (HepG2 [39]) of the same molecule?
A: Active

Q: And the Activity (HepG2 [40])?
A: Active
